{"source": "paper PMC5656594", "about": "(Scientific Reports, 2017)", "key": {"S217K IN^PFV mutant": {"test_system": "S217K IN^PFV mutant", "type": "biochemical, prototype foamy virus (PFV)", "details": "S217K versus wt, ST activity", "quoted_text": "The graphs show representative data of three independent experiments. […] ST products were quantified as explained in the Methods section.\nDNA#13 mimicking the 3′-processed end (Table 1) was radiolabeled with T4 polynucleotide kinase (NEB) and [γ-^32P]ATP (Amersham) and purified on a Sephadex G-10 column. The double-stranded DNA substrate was obtained by mixing equimolar amounts of ssDNA#13 with its 21-mer complementary strand in the presence of 100 mM NaCl. ST reactions were carried out at 37 °C with 200 or 300 nM IN in 20 mM HEPES pH 6.8, 1 mM DTT, 10 mM MgCl2 and 50 mM NaCl, in the presence of 12.5 nM DNA. After separation in a 16% acrylamide/urea denaturing gel, ST products were analyzed with a Typhoon TRIO variable mode imager (GE Healthcare) and quantified with ImageQuant TL software. ST activity was expressed as the % of the signal intensity of ST products divided by the signal intensity of the DNA substrate. […] IC50 values were determined using the Prism 5.0 software."}, "[1]": {"experiment": "DTG-Mg2+ interaction, titration of DTG fluorescence emission enhancement as a function of [Mg2+]", "type": "physicochemical", "details": "DTG 1 μM, λex 345 nm, buffer A, hyperbolic titration curve; read-out: Kd of the DTG-Mg^2+ interaction", "description": "Figure 1 Fluorescence properties of INSTIs in solution and influence of divalent cations. […] Corresponding excitation and emission spectra are shown in Supplementary Fig. S1. Excitation and emission slits: Δλex = Δλem = 5 nm (PMT = 750 V). The fluorescence enhancement factor corresponds to the drug fluorescence emission intensity for a given Mg^2+ concentration normalized by the intensity in the absence of Mg^2+. […] The emission intensity was reported as a function of [Mg^2+] (inset). […] The bar graphs in panels A and D show mean ± SD values from three independent experiments. […] Only [Mg2+] and λex: 345 nm appear in the panel, so the substance is left empty.\nFurthermore, both drugs display a Mg^2+ dependence of fluorescence intensity, however with some differences. A slight increase of EVG fluorescence intensity was observed upon addition of Mg^2+ (a 3-fold increase for the two excitation modes from 0 to 10 mM Mg^2+; Fig. 1B). […] This Mg^2+-dependent enhancement is related to an increase of the fluorescence quantum yield since no Mg^2+-dependent change in the absorption spectrum was observed (Supplementary Fig. S2A).\nFluorescence excitation and emission spectra of INSTIs were recorded on a Eclipse (Varian) spectrofluorimeter equipped with two polarizers for anisotropy measurements and a thermostated cell holder, using 80 µl solutions placed in micro cells (Hellma). […]"}, "E221A IN^PFV-DNA complex": {"biological_target": "T1, E221A IN^PFV-DNA complex (Human spumaretrovirus, UniProt P14350, E972A/G968S/S969G)", "T1 construct": "The pET-IN-PFV plasmid containing the full-length IN gene was used for mutagenesis; His; made in house; host or cells: E. coli BL21-CodonPlus (DE3)-RIPL", "experiment": "Fluorescence enhancement DTG-binding assay, E221A catalytic mutant", "set-up": "species or system prototype foamy virus (PFV)", "details": "1 mM Mg2+", "protocol": "(§1) The fluorescence intensity was monitored as a function of (IN + DNA) and plotted as a function of the binary IN-DNA complex concentration (measured as explained in Fig. 2E legend). […] (B) The percentage of ternary complexes was calculated using DTG fluorescence enhancement. […] The graphs in panels A-B show representative data of three independent experiments. […] \"DTG\" is taken from the y-axis title of the same panel.\n(§2) To note, Mg^2+ is dispensable for the overall DNA-binding step of IN[32],[43]–[45] and thus, the loss of Mg^2+ chelation is not contradictory with results showing that catalytic mutants bind equally well to DNA and in a similar manner than wt IN (Supplementary Fig. S6). However, G187R cannot be considered as a catalytic mutant since it sustains a significant ST activity although weak (≈10% of the wt activity; Fig. 6).\n(§3) Fluorescence excitation and emission spectra of INSTIs were recorded on a Eclipse (Varian) spectrofluorimeter equipped with two polarizers for anisotropy measurements and a thermostated cell holder, using 80 µl solutions placed in micro cells (Hellma). […] The steady-state fluorescence anisotropy was calculated using: r = (IVV–G x IVH)/(IVV + 2GxIVH) where IVV and IVH correspond to vertical and horizontal components, respectively, when the sample is excited with vertically polarized light. […]"}, "[2]": {"biological_target": "T2, IN^PFV-viral DNA interaction (Human spumaretrovirus, UniProt P14350)", "T2 construct": "The full-length wt IN^PFV, the three single mutants of the catalytic triad; His; made in house; host or cells: E. coli BL21-CodonPlus (DE3)-RIPL", "experiment": "IN-viral DNA interaction by steady-state fluorescence anisotropy of Fl-DNA with increasing drug concentrations", "type": "binding, prototype foamy virus (PFV)", "details": "400 nM IN^PFV, 4 nM Fl-PFV^CAAT, 10 mM Mg2+, up to 20 µM drug; means INSTI did not prevent IN-DNA interactions", "protocol": "Their incapability to prevent or disrupt IN-viral DNA complexes was consistently observed over the whole concentration range, regardless of the INSTI tested (Supplementary Fig. S7).\nIN^PFV binding to DNA was measured by fluorescence anisotropy on a Beacon Instrument (Panvera, Madison, WI, USA) as previously described[25],[51], using a double-stranded 21-mer Fl-labeled DNA mimicking the PFV U5 LTR end also referred to as DNA#1 in Table 1 (labeled at the 5′-end of the reactive strand). IN binding to Fl-PFV^CAAT (or Fl-DNA#1) was compared to the binding to other DNA sequences (Fl-DNA#8 #9 #13). DNA annealing was obtained by mixing equimolar amounts of complementary strands in buffer A, heating to 85 °C for 5 min and slow cooling to 25 °C. DNA-binding experiments were performed at 25 °C in buffer A.\nFigure S7. Differential effect of INSTI and INBI compounds on the INPFV-viral DNA interaction.\nThe formation of IN-DNA complexes was measured by steady-state fluorescence anisotropy using 400 nM INPFV and 4 nM Fl-PFVCAAT (also named Fl-DNA#1) in the presence of 10 mM Mg2+ and […]\nIn each plot, the starting r value (≈ 0.20) corresponds to the typical value found at saturating concentrations of IN (see Fig. S6).\nThe INBI compound FZ41, a member of the styrylquinoline family of inhibitors, was used as a control […]\nshow mean ± SD values from two independent experiments. […]"}, "[3]": {"biological_target": "T3, PFV IN complexed with various DNA sequences (Human spumaretrovirus, UniProt P14350)", "T3 construct": "The full-length wt IN^PFV, the three single mutants of the catalytic triad; His; made in house; host or cells: E. coli BL21-CodonPlus (DE3)-RIPL", "experiment": "DTG binding to IN complexed with various DNA sequences, fluorescence anisotropy procedure", "set-up": "species or system prototype foamy virus (PFV)", "details": "normalized by DNA#1, [IN]=[DNA]=1.8 μM, [DTG]=0.6 μM, 10 mM Mg2+", "protocol": "The binary complex concentration was measured as explained in Fig. 2E. […] This percentage was then plotted against the concentration of the binary complex (F). […] All graphs show representative data of three (panels A and B) or two (panels C–F) independent experiments.\nFluorescence excitation and emission spectra of INSTIs were recorded on a Eclipse (Varian) spectrofluorimeter equipped with two polarizers for anisotropy measurements and a thermostated cell holder, using 80 µl solutions placed in micro cells (Hellma). Drug, IN and DNA concentrations, excitation/emission slit settings as well as the photomultiplier tube (PMT) voltage are specified in figure legends. The intensity value was corrected from the inner filter effect. The steady-state fluorescence anisotropy was calculated using: r = (IVV–G x IVH)/(IVV + 2GxIVH) where IVV and IVH correspond to vertical and horizontal components, respectively, when the sample is excited with vertically polarized light. G represents the correction factor for the difference in the monochromator transmission between // and ⊥ polarized components: G = IHV/IHH. All experiments were performed at 25 °C in buffer A: 20 mM Tris pH 7.2, 50 mM NaCl, 1 mM DTT and 10% (v/v) DMSO."}, "D185N IN^PFV-DNA complex": {"biological_target": "T4, D185N IN^PFV-DNA complex (Human spumaretrovirus, UniProt P14350, D936N)", "T4 construct": "The pET-IN-PFV plasmid containing the full-length IN gene was used for mutagenesis; His; made in house; host or cells: E. coli BL21-CodonPlus (DE3)-RIPL", "experiment": "Fluorescence enhancement DTG-binding assay, D185N catalytic mutant", "set-up": "species or system prototype foamy virus (PFV)", "details": "1 mM Mg2+", "protocol": "as §1, §2, §3"}}, "note": "“And” between values parts separate entries of the source, which are not always exact repeats. Equal entries are not always repeated."}
{"smiles": "C[C@@H]1CCO[C@H]2Cn3cc(C(=O)NCc4ccc(F)cc4F)c(=O)c(O)c3C(=O)N12", "note": "[DTG, dolutegravir]", "values": [{"measurement": "decrease in DTG susceptibility", "setting": "S217K IN^PFV mutant", "value": "≈ 50 fold"}, {"measurement": "Kd", "setting": "[1]", "value": "~1.2 mM and 1 to 2 mM"}, {"measurement": "DTG binding to E221A catalytic mutant", "setting": "E221A IN^PFV-DNA complex", "value": "loss of DTG-binding"}, {"measurement": "r value of Fl-DNA (IN-DNA complex) on increasing INSTI concentration", "setting": "[2]", "value": "remained constant"}, {"measurement": "DTG-binding (%) Fluorescence anisotropy procedure", "setting": "[3]; DNA#1 (cognate)", "value": 100, "unit": "%"}, {"measurement": "DTG-binding (%) Fluorescence anisotropy procedure", "setting": "[3]; DNA#3", "value": "96 ± 3", "unit": "%"}, {"measurement": "DTG-binding (%) Fluorescence anisotropy procedure", "setting": "[3]; DNA#7", "value": "42 ± 6", "unit": "%"}, {"measurement": "DTG-binding (%) Fluorescence anisotropy procedure", "setting": "[3]; DNA#8", "value": "8 ± 2", "unit": "%"}, {"measurement": "DTG-binding (%) Fluorescence anisotropy procedure", "setting": "[3]; DNA#9 (random sequence)", "value": "15 ± 3", "unit": "%"}, {"measurement": "DTG-binding (%) Fluorescence anisotropy procedure", "setting": "[3]; DNA#11", "value": "29 ± 3", "unit": "%"}, {"measurement": "DTG-binding (%) Fluorescence anisotropy procedure", "setting": "[3]; DNA#12", "value": "77 ± 4", "unit": "%"}, {"measurement": "DTG-binding (%) Fluorescence anisotropy procedure", "setting": "[3]; DNA#13 (processed DNA product)", "value": "79 ± 5", "unit": "%"}, {"measurement": "DTG binding to D185N catalytic mutant", "setting": "D185N IN^PFV-DNA complex", "value": "loss of DTG-binding"}]}
